Experimental data: PubChem BioAssay AID220 (DTP/NCI, 2004)
Where “and” joins values, the source holds several entries; their conditions need not be identical. Identical values can stand only once. Records with an inconclusive call do not appear.

System: CD8F1 mice, subcutaneous mammary adenocarcinoma, T/C%
Test: NCI In Vivo Anticancer Drug Screen. Data for tumor model Mammary Adenocarcinoma CD8F1 (subcutaneous) in CD8F1
Settings: higher = larger tumour
Method: The antitumor activity of compounds was measured in mice bearing transplantable tumors. Survival or tumor size were measured and the results are expressed as the measurement made in the treated group (T) divided by the measurement made in the vehicle treated control group (C). The tumor model used in this assay is Mammary Adenocarcinoma CD8F1 (subcutaneous) in CD8F1

[1] = endpoint: median tumor weight change, dose: 125.0 mg/kg/injection, schedule: Q01DX001 (ip), vehicle: saline with Tween-80
[2] = endpoint: median tumor weight change, dose: 250.0 mg/kg/injection, schedule: Q01DX001 (ip), vehicle: saline with Tween-80
[3] = endpoint: median tumor weight change, dose: 500.0 mg/kg/injection, schedule: Q01DX001 (ip), vehicle: saline with Tween-80
[4] = endpoint: median tumor weight change, dose: 1000.0 mg/kg/injection, schedule: Q01DX001 (ip), vehicle: saline with Tween-80
[5] = endpoint: median tumor weight (est.), dose: 25.0 mg/kg/injection, schedule: Q07DX005 (ip), vehicle: Klucel (hydroxypropylcellulose) (HPC)
[6] = endpoint: median tumor weight (est.), dose: 100.0 mg/kg/injection, schedule: Q07DX005 (ip), vehicle: Klucel (hydroxypropylcellulose) (HPC)
[7] = endpoint: median tumor weight (est.), dose: 25.0 mg/kg/injection, schedule: Q07DX005 (ip), vehicle: saline
[8] = endpoint: median tumor weight (est.), dose: 50.0 mg/kg/injection, schedule: Q07DX005 (ip), vehicle: saline

CC12CCC3C(CCC4CC(OC(=O)Cc5ccc(N(CCCl)CCCl)cc5)CCC43C)C1CCC(=O)N2 (configuration not stated)
T/C (endpoint: median tumor weight (est.), dose: 0.75 mg/kg/injection, schedule: Q07DX005 (ip), vehicle: saline with Tween-80): 63 % of control | T/C (endpoint: median tumor weight (est.), dose: 1.5 mg/kg/injection, schedule: Q07DX005 (ip), vehicle: saline with Tween-80): 109 % of control | T/C (endpoint: median tumor weight (est.), dose: 3.0 mg/kg/injection, schedule: Q07DX005 (ip), vehicle: Klucel (hydroxypropylcellulose) (HPC)): 91 % of control | T/C (endpoint: median tumor weight (est.), dose: 3.0 mg/kg/injection, schedule: Q07DX005 (ip), vehicle: saline with Tween-80): 99 % of control | T/C (endpoint: median tumor weight (est.), dose: 6.0 mg/kg/injection, schedule: Q07DX005 (ip), vehicle: Klucel (hydroxypropylcellulose) (HPC)): 41 % of control | T/C (endpoint: median tumor weight (est.), dose: 6.0 mg/kg/injection, schedule: Q07DX005 (ip), vehicle: saline with Tween-80): 55 % of control | T/C (endpoint: median tumor weight (est.), dose: 12.0 mg/kg/injection, schedule: Q07DX005 (ip), vehicle: Klucel (hydroxypropylcellulose) (HPC)): 30 % of control | T/C (endpoint: median tumor weight (est.), dose: 12.0 mg/kg/injection, schedule: Q07DX005 (ip), vehicle: saline with Tween-80): 12 % of control | T/C (endpoint: median tumor weight (est.), dose: 24.0 mg/kg/injection, schedule: Q07DX005 (ip), vehicle: Klucel (hydroxypropylcellulose) (HPC)): 8 % of control | T/C (endpoint: median tumor weight (est.), dose: 24.0 mg/kg/injection, schedule: Q07DX005 (ip), vehicle: saline with Tween-80): 1 % of control

Nc1ccc2ccc(NS(=O)(=O)N3CCCCC3)cc2c1
T/C [1]: 66 % of control | T/C [2]: 73 % of control | T/C [3]: 87 % of control | T/C [4]: 31 % of control

CC(C)(C)C1CCCCC1
T/C (endpoint: median tumor weight (est.), dose: 12.5 mg/kg/injection, schedule: Q07DX005 (ip), vehicle: Klucel (hydroxypropylcellulose) (HPC)): 85 % of control | T/C [5]: 69 % of control | T/C [6]: 94 % of control | T/C (endpoint: median tumor weight (est.), dose: 200.0 mg/kg/injection, schedule: Q07DX005 (ip), vehicle: Klucel (hydroxypropylcellulose) (HPC)): 73 % of control | T/C (endpoint: median tumor weight (est.), dose: 400.0 mg/kg/injection, schedule: Q07DX005 (ip), vehicle: Klucel (hydroxypropylcellulose) (HPC)): 69 % of control

O=C1SC(c2ccccc2)=S=C1c1ccccc1
T/C [1]: 67 % of control | T/C [2]: 100 % of control | T/C [3]: 60 % of control | T/C [4]: 56 % of control

C/C=C1\C[C@@H]2C(OC)Nc3cc(O)c(OC)cc3C(=O)N2C1 (some centres not stated)
T/C (endpoint: median tumor weight change, dose: 0.06 mg/kg/injection, schedule: Q01DX001 (ip), vehicle: saline): 105 % of control | T/C (endpoint: median tumor weight change, dose: 0.12 mg/kg/injection, schedule: Q01DX001 (ip), vehicle: saline): 96 % of control | T/C (endpoint: median tumor weight change, dose: 0.25 mg/kg/injection, schedule: Q01DX001 (ip), vehicle: saline): 105 % of control | T/C (endpoint: median tumor weight change, dose: 0.31 mg/kg/injection, schedule: Q01DX001 (ip), vehicle: suspension in saline): 76 % of control | T/C (endpoint: median tumor weight change, dose: 0.5 mg/kg/injection, schedule: Q01DX001 (ip), vehicle: saline): 90 % of control | T/C (endpoint: median tumor weight change, dose: 0.62 mg/kg/injection, schedule: Q01DX001 (ip), vehicle: suspension in saline): 53 % of control | T/C (endpoint: median tumor weight change, dose: 1.0 mg/kg/injection, schedule: Q01DX001 (ip), vehicle: saline): 92 % of control | T/C (endpoint: median tumor weight change, dose: 1.25 mg/kg/injection, schedule: Q01DX001 (ip), vehicle: suspension in saline): 43 % of control | T/C (endpoint: median tumor weight change, dose: 2.0 mg/kg/injection, schedule: Q01DX001 (ip), vehicle: saline): 42 % of control

OCC12COCN1COC2
T/C (endpoint: median tumor weight change, dose: 50.0 mg/kg/injection, schedule: Q01DX001 (ip), vehicle: saline): 100 % of control | T/C (endpoint: median tumor weight change, dose: 100.0 mg/kg/injection, schedule: Q01DX001 (ip), vehicle: saline): 107 % of control | T/C (endpoint: median tumor weight change, dose: 200.0 mg/kg/injection, schedule: Q01DX001 (ip), vehicle: saline): 71 % of control | T/C (endpoint: median tumor weight change, dose: 400.0 mg/kg/injection, schedule: Q01DX001 (ip), vehicle: saline): 87 % of control | T/C (endpoint: median tumor weight change, dose: 800.0 mg/kg/injection, schedule: Q01DX001 (ip), vehicle: saline): 82 % of control

CC(=O)OCC1OC(n2ncc(=O)[nH]c2=O)C(OC(C)=O)C1OC(C)=O (configuration not stated)
T/C (endpoint: median tumor weight change, dose: 125.0 mg/kg/injection, schedule: Q01DX001 (ip), vehicle: saline): 165 % of control | T/C (endpoint: median tumor weight change, dose: 250.0 mg/kg/injection, schedule: Q01DX001 (ip), vehicle: saline): 111 % of control | T/C (endpoint: median tumor weight change, dose: 500.0 mg/kg/injection, schedule: Q01DX001 (ip), vehicle: saline): 162 % of control | T/C (endpoint: median tumor weight change, dose: 1000.0 mg/kg/injection, schedule: Q01DX001 (ip), vehicle: saline): 117 % of control

ClCC[N+]12CC[N+](CCCl)(CC1)C2 (tested in a mixture with another compound)
T/C [7]: 75 % of control | T/C [8]: 67 % of control | T/C (endpoint: median tumor weight (est.), dose: 100.0 mg/kg/injection, schedule: Q07DX005 (ip), vehicle: saline): 93 % of control | T/C (endpoint: median tumor weight (est.), dose: 200.0 mg/kg/injection, schedule: Q07DX005 (ip), vehicle: saline): 43 % of control | T/C (endpoint: median tumor weight (est.), dose: 400.0 mg/kg/injection, schedule: Q07DX005 (ip), vehicle: saline): 43 % of control | T/C (endpoint: median tumor weight (est.), dose: 600.0 mg/kg/injection, schedule: Q07DX005 (ip), vehicle: saline): 12 % of control

CCC1OCC(C(Cl)CCl)O1 (configuration not stated)
T/C [5]: 93 % of control | T/C (endpoint: median tumor weight (est.), dose: 50.0 mg/kg/injection, schedule: Q07DX005 (ip), vehicle: Klucel (hydroxypropylcellulose) (HPC)): 109 % of control | T/C [6]: 74 % of control

CC1(CO)C(O)CCC2(C)C1CCC1CC3CC12CCC3(O)CO (configuration not stated)
T/C (endpoint: median tumor weight (est.), dose: 12.5 mg/kg/injection, schedule: Q07DX005 (ip), vehicle: saline with Tween-80): 39 % of control | T/C (endpoint: median tumor weight (est.), dose: 18.75 mg/kg/injection, schedule: Q07DX005 (ip), vehicle: saline with Tween-80): 53 % of control | T/C (endpoint: median tumor weight (est.), dose: 25.0 mg/kg/injection, schedule: Q07DX005 (ip), vehicle: saline with Tween-80): 55 % of control | T/C (endpoint: median tumor weight (est.), dose: 37.5 mg/kg/injection, schedule: Q07DX005 (ip), vehicle: saline with Tween-80): 85 % of control | T/C (endpoint: median tumor weight (est.), dose: 50.0 mg/kg/injection, schedule: Q07DX005 (ip), vehicle: saline with Tween-80): 60 % of control | T/C (endpoint: median tumor weight (est.), dose: 100.0 mg/kg/injection, schedule: Q07DX005 (ip), vehicle: saline with Tween-80): 58 % of control | T/C (endpoint: median tumor weight (est.), dose: 200.0 mg/kg/injection, schedule: Q07DX005 (ip), vehicle: saline with Tween-80): 92 % of control | T/C (endpoint: median tumor weight (est.), dose: 400.0 mg/kg/injection, schedule: Q07DX005 (ip), vehicle: saline with Tween-80): 13 % of control

COC1CC(C)C(OC)c2cc(O)cc(c2O)NC(=O)/C(C)=C/C=C\C(C)C(OC(N)=O)/C(C)=C\C(C)C1OC (configuration not stated)
T/C (endpoint: median tumor weight change, dose: 6.25 mg/kg/injection, schedule: Q01DX001 (ip), vehicle: saline + Tween-80 + alcohol): 87 % of control | T/C (endpoint: median tumor weight change, dose: 12.5 mg/kg/injection, schedule: Q01DX001 (ip), vehicle: saline + Tween-80 + alcohol): 88 % of control | T/C (endpoint: median tumor weight change, dose: 25.0 mg/kg/injection, schedule: Q01DX001 (ip), vehicle: saline + Tween-80 + alcohol): 87 % of control

ClCCCN1CCCCC1CCl (configuration not stated)
T/C (endpoint: median tumor weight (est.), dose: 1.56 mg/kg/injection, schedule: Q07DX005 (ip), vehicle: saline): 73 % of control | T/C (endpoint: median tumor weight (est.), dose: 3.12 mg/kg/injection, schedule: Q07DX005 (ip), vehicle: saline): 123 % of control and 105 % of control | T/C (endpoint: median tumor weight (est.), dose: 6.25 mg/kg/injection, schedule: Q07DX005 (ip), vehicle: saline): 71 % of control and 78 % of control | T/C [7]: 53 % of control | T/C [8]: 3 % of control

Nc1nc2c(ncn2C2OC(CO)C(O)C2N)c(=O)[nH]1 (configuration not stated)
T/C (endpoint: median tumor weight (est.), dose: 4.5 mg/kg/injection, schedule: Q07DX005 (ip), vehicle: saline with Tween-80): 79 % of control | T/C (endpoint: median tumor weight (est.), dose: 9.0 mg/kg/injection, schedule: Q07DX005 (ip), vehicle: saline with Tween-80): 99 % of control | T/C (endpoint: median tumor weight (est.), dose: 36.0 mg/kg/injection, schedule: Q07DX005 (ip), vehicle: saline with Tween-80): 172 % of control | T/C (endpoint: median tumor weight (est.), dose: 72.0 mg/kg/injection, schedule: Q07DX005 (ip), vehicle: saline with Tween-80): 106 % of control

CCCCCCCCCCCCCCCCCCOCC(COP(=O)([O-])OCC[N+](C)(C)C)OC (configuration not stated)
T/C (endpoint: median tumor weight change, dose: 1.95 mg/kg/injection, schedule: Q01DX001 (ip), vehicle: saline): 97 % of control | T/C (endpoint: median tumor weight change, dose: 3.9 mg/kg/injection, schedule: Q01DX001 (ip), vehicle: saline): 67 % of control | T/C (endpoint: median tumor weight change, dose: 7.8 mg/kg/injection, schedule: Q01DX001 (ip), vehicle: saline): 95 % of control | T/C (endpoint: median tumor weight change, dose: 15.62 mg/kg/injection, schedule: Q01DX001 (ip), vehicle: saline): 48 % of control | T/C (endpoint: median tumor weight change, dose: 31.0 mg/kg/injection, schedule: Q01DX001 (ip), vehicle: suspension in saline): 79 % of control | T/C (endpoint: median tumor weight change, dose: 31.25 mg/kg/injection, schedule: Q01DX001 (ip), vehicle: saline): 100 % of control | T/C (endpoint: median tumor weight change, dose: 62.0 mg/kg/injection, schedule: Q01DX001 (ip), vehicle: suspension in saline): 75 % of control
